For orientation: Ki means a measure of affinity in units of concentration, obtained from inhibition or displacement. The term inhibition denotes the change of the read-out against control, counted positive when it falls.

For one test, the target named is human orexin 2 receptors (Homo sapiens (Human), UniProt O43614). Description: Calcium Accumulation in Cells (FLIPR), antagonism of orexin A. The format is cell-based. The note with it: for Ki: antagonism of orexin A, Cheng-Prusoff corrected, read-out: FLIPR hOx2R Ki; for inhibition at 10 µM: measured at a concentration of 10 μM of compound, read-out: FLIPR hOx2R % inhibition value. In outline: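 Cells expressing human orexin 2 receptor, loaded with Fluo4-AM (2 μM) plus probenecid (0.1 mM) for 1 h, then washed. Antagonism read as inhibition of the orexin A calcium fluorescence signal (FLIPR).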

A further test addresses human orexin 1 receptors (Homo sapiens (Human), UniProt O43613). Described as above. In kind it is cell-based. The settings on record: for Ki: antagonism of orexin A, Cheng-Prusoff corrected, read-out: FLIPR hOx1R Ki; for inhibition at 10 µM: measured at a concentration of 10 μM of compound, read-out: FLIPR hOx1R % inhibition value.

Sequence of human orexin 1 receptors (O43613 whole entry): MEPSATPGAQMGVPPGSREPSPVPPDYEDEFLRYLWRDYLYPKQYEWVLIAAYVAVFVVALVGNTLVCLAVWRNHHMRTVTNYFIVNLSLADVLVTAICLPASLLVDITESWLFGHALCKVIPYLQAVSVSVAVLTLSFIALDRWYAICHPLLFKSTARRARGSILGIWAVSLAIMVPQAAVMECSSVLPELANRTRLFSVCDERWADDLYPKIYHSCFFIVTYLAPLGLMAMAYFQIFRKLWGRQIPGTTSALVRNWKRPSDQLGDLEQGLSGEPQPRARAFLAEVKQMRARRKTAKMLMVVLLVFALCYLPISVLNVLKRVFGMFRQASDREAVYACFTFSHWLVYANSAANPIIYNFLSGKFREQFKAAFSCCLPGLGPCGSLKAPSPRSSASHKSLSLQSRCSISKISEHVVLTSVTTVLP
Sequence of human orexin 2 receptors (O43614 whole entry): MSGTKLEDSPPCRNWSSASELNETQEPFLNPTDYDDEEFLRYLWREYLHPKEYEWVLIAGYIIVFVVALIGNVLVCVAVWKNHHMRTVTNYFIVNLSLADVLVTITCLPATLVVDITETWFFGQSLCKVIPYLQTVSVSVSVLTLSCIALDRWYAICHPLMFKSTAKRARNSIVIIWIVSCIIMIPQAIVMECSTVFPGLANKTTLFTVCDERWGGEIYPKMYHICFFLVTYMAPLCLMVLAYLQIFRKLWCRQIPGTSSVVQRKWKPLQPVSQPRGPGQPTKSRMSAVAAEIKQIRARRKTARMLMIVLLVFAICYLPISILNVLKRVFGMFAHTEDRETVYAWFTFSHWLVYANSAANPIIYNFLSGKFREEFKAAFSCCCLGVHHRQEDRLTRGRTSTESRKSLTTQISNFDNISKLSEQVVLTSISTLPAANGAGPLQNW

For the compound `COc1ccc(C(C)NC(=O)COc2cc(C)c3c(-c4cc(C)oc4C)nn(C)c3n2)cn1` (centres unmarked) [Example 6.32, 2-(3-(2,5-dimethylfuran-3-yl)-1,4-dimethyl-1H-pyrazolo[3,4-b]pyridin-6-yloxy)-N-(1-(6-methoxypyridin-3-yl)ethyl)acetamide], the results for the Ki at human orexin 2 receptors and on human orexin 1 receptors were 950 nM and 845 nM, respectively.
In the same order, the values of `Cc1ccc([C@H](C)NC(=O)COc2ccc3c(-c4ccccc4C)nn(C)c3n2)cc1` [Example 6.35, (S)-2-(1-methyl-3-o-tolyl-1H-pyrazolo[3,4-b]pyridin-6-yloxy)-N-(1-p-tolylethyl)acetamide] are 126 nM and 256 nM.
Take `Cc1cc(OCC(=O)NC2CCc3cc(F)ccc32)nc2c1c(C1CC1)nn2C` (centres unmarked) [Example 6.40, 2-(3-cyclopropyl-1,4-dimethyl-1H-pyrazolo[3,4-b]pyridin-6-yloxy)-N-(5-fluoro-2,3-dihydro-1H-inden-1-yl)acetamide]: on human orexin 2 receptors, the Ki stood at 589 nM. In addition, the inhibition at 10 µM on human orexin 1 receptors was 21%.
`Cc1cc(OCC(=O)NCC(C)C)nc2c1c(C1CC1)nn2C` [Example 6.45, 2-(3-cyclopropyl-1,4-dimethyl-1H-pyrazolo[3,4-b]pyridin-6-yloxy)-N-isobutylacetamide]: the results for the inhibition at 10 µM on human orexin 2 receptors and on human orexin 1 receptors were 19% and 20%, respectively.
In the same order, the values of `Cc1cc(OCC(=O)NC2CCCC2)nc2c1c(C1CC1)nn2C` [Example 6.46, N-cyclopentyl-2-(3-cyclopropyl-1,4-dimethyl-1H-pyrazolo[3,4-b]pyridin-6-yloxy)acetamide] are 26% and 16%.
As for `COc1ccc(C(C)NC(=O)COc2cc(C)c3c(C4CC4)nn(C)c3n2)cn1` (centres unmarked) [Example 6.47, 2-(3-cyclopropyl-1,4-dimethyl-1H-pyrazolo[3,4-b]pyridin-6-yloxy)-N-(1-(6-methoxypyridin-3-yl)ethyl)acetamide], the Ki on human orexin 2 receptors came to 747 nM; on human orexin 1 receptors it was 1490 nM.
`Cc1cc(OCC(=O)NC(C)c2cc(CC(C)(C)C)on2)nc2c1c(C1CC1)nn2C` (centres unmarked) [Example 6.48, 2-(3-cyclopropyl-1,4-dimethyl-1H-pyrazolo[3,4-b]pyridin-6-yloxy)-N-(1-(5-neopentylisoxazol-3-yl)ethyl)acetamide]: the inhibition at 10 µM at human orexin 2 receptors and at human orexin 1 receptors was below 10% in each case.
Turning to `Cc1cc(OCC(=O)NCCc2ccccc2)nc2c1c(C1CC1)nn2C` [Example 6.49, 2-(3-cyclopropyl-1,4-dimethyl-1H-pyrazolo[3,4-b]pyridin-6-yloxy)-N-phenethylacetamide], the Ki at human orexin 2 receptors came out at 611 nM. For the same compound, the inhibition at 10 µM at human orexin 1 receptors was determined as 21%.
For `Cc1cc(OCC(=O)NCCCc2ccccc2)nc2c1c(C1CC1)nn2C` [Example 6.50, 2-(3-cyclopropyl-1,4-dimethyl-1H-pyrazolo[3,4-b]pyridin-6-yloxy)-N-(3-phenylpropyl)acetamide], the inhibition at 10 µM on human orexin 2 receptors amounted to 42%; on human orexin 1 receptors it was 10%.
Regarding `COc1ccc([C@H](C)N(C)C(=O)COc2cc(C)c3c(C4CC4)nn(C)c3n2)cc1` [Example 6.51], on human orexin 2 receptors, the inhibitory constant (Ki) was 575 nM. Besides, the inhibition at 10 µM at human orexin 1 receptors amounted to 26%.
Regarding `CNC(=O)COc1cc(C)c2c(C3CC3)nn(C)c2n1` [Example 6.52], the inhibition at 10 µM on human orexin 2 receptors and on human orexin 1 receptors was below 10% throughout.
For `Cc1cc(OCC(=O)NC(C)C2CC2)nc2c1c(C1CC1)nn2C` (centres unmarked) [Example 6.53], the inhibition at 10 µM stood at 38% on human orexin 2 receptors and 17% at human orexin 1 receptors.
`CCn1ccc(C(C)NC(=O)COc2cc(C)c3c(C4CC4)nn(C)c3n2)n1` (centres unmarked) [Example 6.54]: the results for the inhibition at 10 µM at human orexin 2 receptors and at human orexin 1 receptors were 29% and 44%, respectively.
For `Cc1ccc(C(C)NC(=O)COc2cc(C)c3c(C4CC4)nn(C)c3n2)cn1` (centres unmarked) [Example 6.55], the Ki at human orexin 2 receptors worked out at 525 nM. Also, the inhibition at 10 µM at human orexin 1 receptors amounted to 53%.
Take `Cc1cc(OCC(=O)N[C@@H](C)C2CCCC2)nc2c1c(C1CC1)nn2C` [Example 6.56, (S)-N-(1-cyclopentylethyl)-2-(3-cyclopropyl-1,4-dimethyl-1H-pyrazolo[3,4-b]pyridin-6-yloxy)acetamide]: the inhibition at 10 µM on human orexin 2 receptors and on human orexin 1 receptors was below 10% throughout.
As for `Cc1cc(OCC(=O)NC(C)c2ccc3c(c2)ncn3C)nc2c1c(C1CC1)nn2C` (centres unmarked) [Example 6.58, 2-(3-cyclopropyl-1,4-dimethyl-1H-pyrazolo[3,4-b]pyridin-6-yloxy)-N-(1-(1-methyl-1H-benzo[d]imidazol-5-yl)ethyl)acetamide], the Ki at human orexin 2 receptors came to 382 nM; on human orexin 1 receptors, 1010 nM.
In the case of `Cc1ccc([C@H](C)NC(=O)COc2nc3c(cc2C)c(C2CC2)nn3C)cc1` [Example 6.60, (S)-2-(3-cyclopropyl-1,5-dimethyl-1H-pyrazolo[3,4-b]pyridin-6-yloxy)-N-(1-p-tolylethyl)acetamide], the Ki at human orexin 2 receptors worked out at 1170 nM. Further, the inhibition at 10 µM on human orexin 1 receptors was determined as 11%.
With `COc1ccc(C(C)(C)NC(=O)COc2cc(C)c3c(C4CC4)nn(C)c3n2)cc1` [Example 6.62, 2-(3-cyclopropyl-1,4-dimethyl-1H-pyrazolo[3,4-b]pyridin-6-yloxy)-N-(2-(4-methoxyphenyl)propan-2-yl)acetamide], the inhibitory constant (Ki) is 160 nM at human orexin 2 receptors and 626 nM at human orexin 1 receptors.
In the same order, the values of `Cc1cc2c(cn1)[C@@H](NC(=O)COc1cc(C)c3c(C4CC4)nn(C)c3n1)CC2` [Example 6.64, (S)-2-(3-cyclopropyl-1,4-dimethyl-1H-pyrazolo[3,4-b]pyridin-6-yloxy)-N-(3-methyl-6,7-dihydro-5H-cyclopenta[c]pyridin-7-yl)acetamide] are 93 nM and 783 nM.
As for `Cc1cnc2c(c1)CC[C@@H]2NC(=O)COc1cc(C)c2c(C3CC3)nn(C)c2n1` [Example 6.65, (S)-2-(3-cyclopropyl-1,4-dimethyl-1H-pyrazolo[3,4-b]pyridin-6-yloxy)-N-(3-methyl-6,7-dihydro-5H-cyclopenta[b]pyridin-7-yl)acetamide], at human orexin 2 receptors, the Ki is 825 nM. In addition, on human orexin 1 receptors, the inhibition at 10 µM is below 10%.
In the case of `Cc1ccc(CNC(=O)COc2cc(C)c3c(C4CC4)nn(C)c3n2)cc1` [Example 6.66, 2-(3-cyclopropyl-1,4-dimethyl-1H-pyrazolo[3,4-b]pyridin-6-yloxy)-N-(4-methylbenzyl)acetamide], the Ki at human orexin 2 receptors was found to be 1300 nM; on human orexin 1 receptors, 3890 nM.
On to `COc1ccc(CNC(=O)COc2cc(C)c3c(C4CC4)nn(C)c3n2)cc1` [Example 6.67, 2-(3-cyclopropyl-1,4-dimethyl-1H-pyrazolo[3,4-b]pyridin-6-yloxy)-N-(4-methoxybenzyl)acetamide], for which the inhibition at 10 µM at human orexin 2 receptors came to 40%; on human orexin 1 receptors, 29%.
In the case of `Cc1cc(OCC(=O)N[C@H]2CCc3cc(OC(C)C)ccc32)nc2c1c(C1CC1)nn2C` [Example 6.69, (S)-2-(3-cyclopropyl-1,4-dimethyl-1H-pyrazolo[3,4-b]pyridin-6-yloxy)-N-(5-isopropoxy-2,3-dihydro-1H-inden-1-yl)acetamide], the inhibition at 10 µM at human orexin 2 receptors was determined as 31%. Also, on human orexin 1 receptors, the Ki amounted to 126 nM.
As for `COc1ccc([C@H](C)NC(=O)C(C)Oc2cc(C)c3c(C4CC4)nn(C)c3n2)cc1` (stereo partly drawn) [Example 6.70, 2-(3-cyclopropyl-1,4-dimethyl-1H-pyrazolo[3,4-b]pyridin-6-yloxy)-N-((S)-1-(4-methoxyphenyl)ethyl)propanamide], the Ki turned out to be 1070 nM on human orexin 2 receptors and 1060 nM on human orexin 1 receptors.
In the case of `COc1ccc([C@H](C)NC(=O)COc2nc3c(c(C4CC4)nn3C)c(C)c2C)cc1` [Example 6.74, (S)-2-(3-cyclopropyl-1,4,5-trimethyl-1H-pyrazolo[3,4-b]pyridin-6-yloxy)-N-(1-(4-methoxyphenyl)ethyl)acetamide], the inhibition at 10 µM turned out to be 38% at human orexin 2 receptors and 23% on human orexin 1 receptors.
For the compound `Cc1ccc([C@H](C)NC(=O)COc2nc3c(c(C4CC4)nn3C)c(C)c2C)cc1` [Example 6.75, (S)-2-(3-cyclopropyl-1,4,5-trimethyl-1H-pyrazolo[3,4-b]pyridin-6-yloxy)-N-(1-p-tolylethyl)acetamide], the Ki at human orexin 2 receptors is 567 nM; on human orexin 1 receptors, 1750 nM.
For the compound `COc1ccc([C@H](C)NC(=O)COc2nc3c(cc2C)c(C2CC2)nn3C)cc1` [Example 6.76, (S)-2-(3-cyclopropyl-1,5-dimethyl-1H-pyrazolo[3,4-b]pyridin-6-yloxy)-N-(1-(4-methoxyphenyl)ethyl)acetamide], the inhibition at 10 µM on human orexin 2 receptors is 34%; on human orexin 1 receptors it was 23%.
As to `C[C@H](NC(=O)COc1cc(C(F)(F)F)c2c(-c3ccccc3)noc2n1)c1ccccc1` [Example 6.78, (S)-2-(3-phenyl-4-(trifluoromethyl)isoxazolo[5,4-b]pyridin-6-yloxy)-N-(1-phenylethyl)acetamide], at human orexin 2 receptors, the Ki stood at 1830 nM. In addition, the inhibition at 10 µM at human orexin 1 receptors is 43%.
Take `Cc1cnc(CNC(=O)COc2cc(C)c3c(C4CC4)nn(C)c3n2)cn1` [Example 7.2, 2-(3-cyclopropyl-1,4-dimethyl-1H-pyrazolo[3,4-b]pyridin-6-yloxy)-N-((5-methylpyrazin-2-yl)methyl)acetamide]: the inhibition at 10 µM on human orexin 2 receptors is 15%; at human orexin 1 receptors, below 10%.
Consider `Cc1cc(OCC(=O)NCCCn2ccnc2)nc2c1c(C1CC1)nn2C` [Example 7.3, N-(3-(1H-imidazol-1-yl)propyl)-2-(3-cyclopropyl-1,4-dimethyl-1H-pyrazolo[3,4-b]pyridin-6-yloxy)acetamide], for which the inhibition at 10 µM was 16% at human orexin 2 receptors and below 10% on human orexin 1 receptors.
In the same order, the values of `Cc1cc(OCC(=O)NCc2ccc3c(c2)CCO3)nc2c1c(C1CC1)nn2C` [Example 7.4, 2-(3-cyclopropyl-1H-dimethyl-1H-pyrazolo[3,4-b]pyridin-6-yloxy)-N-((2,3-dihydrobenzofuran-5-yl)methyl)acetamide] are 26% and below 10%.

These data come from patent US8742106B2 (Novartis AG, priority 2009, dated 2014).
